Results: patent publication US20230096766A1, “AMINO ACID HAVING FUNCTIONAL GROUP CAPABLE OF INTERMOLECULAR HYDROGEN BONDING, PEPTIDE COMPOUND CONTAINING SAME AND METHOD FOR PRODUCTION THEREOF” (Chugai Seiyaku Kabushiki Kaisha, priority 2018, published 2023)
*1 amine or outer side, *2 acyl side, *3 side chain or, on linkers, in order; H or OH if unused. Where a SMILES comes first, the peptide text is derived from it. Bridges are numbered along the chain shown (N, C = ends). [ ]: non-standard residue; d: D form. The star is where a group is joined. ξ: configuration not given here. NMePhe(3-Cl) = CN[C@@H](Cc1cccc(Cl)c1)C(=O)O; NMeF = CN[C@@H](Cc1ccccc1)C(=O)O; NMeGABA = CN(CCCC(=O)[*:2])[*:1]; NMeI = CC[C@H](C)[C@H](NC)C(=O)O; NMeL = CN[C@@H](CC(C)C)C(=O)O; Propyl(2R-OH) = C[C@@H](O)C*; NMeV = CN[C@H](C(=O)O)C(C)C; ξIle = CC[C@H](C)C(N)C(=O)O; NMeA = CN[C@@H](C)C(=O)O; Piperidide = C1CCN(*)CC1; NBuGly = CCCCNCC(=O)O; Isopentyl = CC(C)CC*; NPrGly = CCCNCC(=O)O; X3 = C[C@H](O)C*; Sar = CNCC(=O)O; tBu = CC(C)(C)*

Experiment: in vitro
Conditions: human, Caco-2, Caco-2 (cm/sec)

| SMILES | Papp [×10⁻⁶ cm/s] |
| --- | --- |
| CCCN1CC(=O)N(C)[C@@H](CC(C)C)C(=O)N[C@@H](COCCC(C)C)C(=O)N(C)[C@@H](Cc2ccccc2)C(=O)N(C)[C@@H](CC(C)C)C(=O)N[C@H](C(=O)N2CCCCC2)CC(=O)N[C@H](C(C)C)C(=O)N(C)[C@@H](Cc2ccccc2)C(=O)N[C@@H](COC[C@H](C)O)C(=O)N(C)[C@@H](CC(C)C)C(=O)N[C@@H]([C@@H](C)O)C1=O [AP61] ([dV][NMeF]S(X3)[NMeL]T[NPrGly][NMeL]S(Isopentyl)[NMeF][NMeL]D-Piperidide; lactam N-11) | 0.51 |
| CC(C)CCOC[C@@H]1NC(=O)[C@H](Cc2cccc(Cl)c2)N(C)C(=O)[C@H](Cc2ccccc2)N(C)C(=O)[C@H](COC[C@H](C)O)NC(=O)[C@H](CC(C)C)N(C)C(=O)CCCN(C)C(=O)C[C@@H](C(=O)N2CCCCC2)NC(=O)[C@H](CC(C)C)N(C)C(=O)[C@H](CC(C)C)N(C)C(=O)[C@H]([C@@H](C)O)NC(=O)[C@H](CC(C)C)N(C)C1=O [AP63] ([NMeGABA][NMeL]S(X3)[NMeF][NMePhe(3-Cl)]S(Isopentyl)[NMeL]T[NMeL][NMeL]D-Piperidide; lactam N-11) | 0.14 |
| CC[C@H](C)[C@@H]1NC(=O)[C@H](CC(C)C)N(C)C(=O)CCCN(C)C(=O)C[C@@H](C(=O)N2CCCCC2)NC(=O)[C@H](CC(C)C)N(C)C(=O)[C@H](CC(C)C)N(C)C(=O)[C@H]([C@@H](C)O)NC(=O)[C@H](CC(C)C)N(C)C(=O)[C@H](COC[C@H](C)O)NC(=O)[C@H](Cc2cccc(Cl)c2)N(C)C(=O)[C@H](Cc2ccccc2)N(C)C1=O [AP64] ([NMeGABA][NMeL]I[NMeF][NMePhe(3-Cl)]S(X3)[NMeL]T[NMeL][NMeL]D-Piperidide; lactam N-11) | 0.35 |
| CCCN1CC(=O)N(C)[C@@H](CC(C)C)C(=O)N[C@H](C(=O)N2CCCCC2)CC(=O)N(C)[C@@H](C)C(=O)N[C@@H](COC[C@H](C)O)C(=O)N(C)[C@@H](CC(C)C)C(=O)N(C)[C@@H](Cc2cccc(Cl)c2)C(=O)N[C@@H](CC(C)C)C(=O)N(C)[C@@H](Cc2ccccc2)C(=O)N(C)[C@@H]([C@@H](C)CC)C(=O)N[C@@H]([C@@H](C)O)C1=O [AP65] ([NMeA]S(X3)[NMeL][NMePhe(3-Cl)]L[NMeF][NMeI]T[NPrGly][NMeL]D-Piperidide; lactam N-11) | 1.2 |
| CC[C@H](C)[C@H]1C(=O)N[C@@H]([C@@H](C)O)C(=O)N(C)CC(=O)N(C)[C@@H](CC(C)C)C(=O)N[C@H](C(=O)N2CCCCC2)CC(=O)N(C)[C@@H](C(C)C)C(=O)N[C@@H](CC(C)C)C(=O)N(C)[C@@H](CC(C)C)C(=O)N(C)[C@@H](Cc2ccccc2)C(=O)N[C@@H](COC[C@H](C)O)C(=O)N(C)[C@@H](Cc2ccccc2)C(=O)N1C [AP66] ([NMeV]L[NMeL][NMeF]S(X3)[NMeF][NMeI]T[Sar][NMeL]D-Piperidide; lactam N-11) | 0.68 |
| CCCN1CC(=O)N(C)[C@@H](Cc2ccccc2)C(=O)N(C)[C@@H](CC(C)C)C(=O)N[C@@H](COCCC(C)C)C(=O)N(C)[C@@H](CC(C)C)C(=O)N[C@H](C(=O)N2CCCCC2)CC(=O)N(C)CC(=O)N(C)[C@@H](Cc2cccc(Cl)c2)C(=O)N[C@@H](COC[C@H](C)O)C(=O)N(C)[C@@H](CC(C)C)C(=O)N[C@@H]([C@@H](C)O)C1=O [AP67] ([Sar][NMePhe(3-Cl)]S(X3)[NMeL]T[NPrGly][NMeF][NMeL]S(Isopentyl)[NMeL]D-Piperidide; lactam N-11) | 0.71 |
| CCCN1CC(=O)N(C)[C@@H](Cc2cccc(Cl)c2)C(=O)N(C)[C@@H](CC(C)C)C(=O)N[C@@H](COC[C@H](C)O)C(=O)N(C)[C@@H](CC(C)C)C(=O)N[C@H](C(=O)N2CCCCC2)CC(=O)N(C)CC(=O)N(C)[C@@H](Cc2ccccc2)C(=O)NC([C@@H](C)CC)C(=O)N(C)[C@@H](CC(C)C)C(=O)N[C@@H]([C@@H](C)O)C1=O (stereo partly drawn) [AP68] ([Sar][NMeF][ξIle][NMeL]T[NPrGly][NMePhe(3-Cl)][NMeL]S(X3)[NMeL]D-Piperidide; lactam N-11) | 0.24 |
| CC[C@H](C)[C@H]1C(=O)N[C@@H]([C@@H](C)O)C(=O)N(C)CC(=O)N(C)[C@@H](CC(C)C)C(=O)N[C@H](C(=O)N2CCCCC2)CC(=O)N(C)[C@@H](C(C)C)C(=O)N[C@@H](COC[C@H](C)O)C(=O)N(C)[C@@H](CC(C)C)C(=O)N(C)[C@@H](Cc2cccc(Cl)c2)C(=O)N[C@@H](CC(C)C)C(=O)N(C)[C@@H](Cc2ccccc2)C(=O)N1C [AP69] ([NMeV]S(X3)[NMeL][NMePhe(3-Cl)]L[NMeF][NMeI]T[Sar][NMeL]D-Piperidide; lactam N-11) | 0.7 |
| CCCN1CC(=O)N(C)[C@@H](CC(C)C)C(=O)N[C@@H](COC[C@H](C)O)C(=O)N(C)[C@@H](Cc2cccc(Cl)c2)C(=O)N(C)[C@@H](C(C)C)C(=O)N[C@H](C(=O)N2CCCCC2)CC(=O)N[C@H](C(C)C)C(=O)N(C)[C@@H](Cc2ccccc2)C(=O)N[C@@H](CC(C)C)C(=O)N(C)[C@@H](CC(C)C)C(=O)N[C@@H]([C@@H](C)O)C1=O [AP70] ([dV][NMeF]L[NMeL]T[NPrGly][NMeL]S(X3)[NMePhe(3-Cl)][NMeV]D-Piperidide; lactam N-11) | 0.75 |
| CCCCN1CC(=O)N(C)[C@@H](CC(C)C)C(=O)N[C@@H](COC(C)(C)C)C(=O)N(C)[C@@H](Cc2ccccc2)C(=O)N(C)[C@@H](CC(C)C)C(=O)N[C@H](C(=O)N2CCCCC2)CC(=O)N[C@H](C(C)C)C(=O)N(C)[C@@H](Cc2ccccc2)C(=O)N[C@@H](COC[C@@H](C)O)C(=O)N(C)[C@@H](CC(C)C)C(=O)N[C@@H]([C@@H](C)O)C1=O [AP71] ([dV][NMeF]S(Propyl(2R-OH))[NMeL]T[NBuGly][NMeL]S(tBu)[NMeF][NMeL]D-Piperidide; lactam N-11) | 0.71 |
| CC(C)C[C@@H]1NC(=O)[C@H](Cc2ccccc2)N(C)C(=O)[C@@H](C(C)C)NC(=O)C[C@@H](C(=O)N2CCCCC2)NC(=O)[C@H](CC(C)C)N(C)C(=O)[C@H](Cc2cccc(Cl)c2)N(C)C(=O)[C@H](COC[C@@H](C)O)NC(=O)[C@H](CC(C)C)N(C)C(=O)CN(C)C(=O)[C@H]([C@@H](C)O)NC(=O)[C@H](CC(C)C)N(C)C1=O [AP72] ([dV][NMeF]L[NMeL]T[Sar][NMeL]S(Propyl(2R-OH))[NMePhe(3-Cl)][NMeL]D-Piperidide; lactam N-11) | 0.95 |
| CC[C@H](C)[C@@H]1NC(=O)[C@H](CC(C)C)N(C)C(=O)CCCN(C)C(=O)C[C@@H](C(=O)N2CCCCC2)NC(=O)[C@H](CC(C)C)N(C)C(=O)[C@H](CC(C)C)N(C)C(=O)[C@H]([C@@H](C)O)NC(=O)[C@H](CC(C)C)N(C)C(=O)[C@H](COC[C@@H](C)O)NC(=O)[C@H](Cc2cccc(Cl)c2)N(C)C(=O)[C@H](Cc2ccccc2)N(C)C1=O [AP74] ([NMeGABA][NMeL]I[NMeF][NMePhe(3-Cl)]S(Propyl(2R-OH))[NMeL]T[NMeL][NMeL]D-Piperidide; lactam N-11) | 0.31 |
| CCCCN1CC(=O)N(C)[C@@H](CC(C)C)C(=O)N[C@H](C(=O)N2CCCCC2)CC(=O)N(C)[C@@H](C)C(=O)N[C@@H](COC[C@@H](C)O)C(=O)N(C)[C@@H](CC(C)C)C(=O)N(C)[C@@H](Cc2cccc(Cl)c2)C(=O)N[C@@H](CC(C)C)C(=O)N(C)[C@@H](Cc2ccccc2)C(=O)N(C)[C@@H]([C@@H](C)CC)C(=O)N[C@@H]([C@@H](C)O)C1=O [AP75] ([NMeA]S(Propyl(2R-OH))[NMeL][NMePhe(3-Cl)]L[NMeF][NMeI]T[NBuGly][NMeL]D-Piperidide; lactam N-11) | 1.1 |
| CC[C@H](C)[C@H]1C(=O)N[C@@H]([C@@H](C)O)C(=O)N(C)CC(=O)N(C)[C@@H](CC(C)C)C(=O)N[C@H](C(=O)N2CCCCC2)CC(=O)N(C)[C@@H](C(C)C)C(=O)N[C@@H](CC(C)C)C(=O)N(C)[C@@H](CC(C)C)C(=O)N(C)[C@@H](Cc2ccccc2)C(=O)N[C@@H](COC[C@@H](C)O)C(=O)N(C)[C@@H](Cc2ccccc2)C(=O)N1C [AP76] ([NMeV]L[NMeL][NMeF]S(Propyl(2R-OH))[NMeF][NMeI]T[Sar][NMeL]D-Piperidide; lactam N-11) | 0.84 |
| CCCCN1CC(=O)N(C)[C@@H](Cc2ccccc2)C(=O)N(C)[C@@H](CC(C)C)C(=O)N[C@@H](COC(C)(C)C)C(=O)N(C)[C@@H](CC(C)C)C(=O)N[C@H](C(=O)N2CCCCC2)CC(=O)N(C)CC(=O)N(C)[C@@H](Cc2cccc(Cl)c2)C(=O)N[C@@H](COC[C@@H](C)O)C(=O)N(C)[C@@H](CC(C)C)C(=O)N[C@@H]([C@@H](C)O)C1=O [AP77] ([Sar][NMePhe(3-Cl)]S(Propyl(2R-OH))[NMeL]T[NBuGly][NMeF][NMeL]S(tBu)[NMeL]D-Piperidide; lactam N-11) | 1 |
| CCCCN1CC(=O)N(C)[C@@H](Cc2cccc(Cl)c2)C(=O)N(C)[C@@H](CC(C)C)C(=O)N[C@@H](COC[C@@H](C)O)C(=O)N(C)[C@@H](CC(C)C)C(=O)N[C@H](C(=O)N2CCCCC2)CC(=O)N(C)CC(=O)N(C)[C@@H](Cc2ccccc2)C(=O)N[C@@H]([C@@H](C)CC)C(=O)N(C)[C@@H](CC(C)C)C(=O)N[C@@H]([C@@H](C)O)C1=O [AP78] ([Sar][NMeF]I[NMeL]T[NBuGly][NMePhe(3-Cl)][NMeL]S(Propyl(2R-OH))[NMeL]D-Piperidide; lactam N-11) | 0.24 |
| CC[C@H](C)[C@H]1C(=O)N[C@@H]([C@@H](C)O)C(=O)N(C)CC(=O)N(C)[C@@H](CC(C)C)C(=O)N[C@H](C(=O)N2CCCCC2)CC(=O)N(C)[C@@H](C(C)C)C(=O)N[C@@H](COC[C@@H](C)O)C(=O)N(C)[C@@H](CC(C)C)C(=O)N(C)[C@@H](Cc2cccc(Cl)c2)C(=O)N[C@@H](CC(C)C)C(=O)N(C)[C@@H](Cc2ccccc2)C(=O)N1C [AP79] ([NMeV]S(Propyl(2R-OH))[NMeL][NMePhe(3-Cl)]L[NMeF][NMeI]T[Sar][NMeL]D-Piperidide; lactam N-11) | 1.1 |
| CCCCN1CC(=O)N(C)[C@@H](CC(C)C)C(=O)N[C@@H](COC[C@@H](C)O)C(=O)N(C)[C@@H](Cc2cccc(Cl)c2)C(=O)N(C)[C@@H](C(C)C)C(=O)N[C@H](C(=O)N2CCCCC2)CC(=O)N[C@H](C(C)C)C(=O)N(C)[C@@H](Cc2ccccc2)C(=O)N[C@@H](CC(C)C)C(=O)N(C)[C@@H](CC(C)C)C(=O)N[C@@H]([C@@H](C)O)C1=O [AP80] ([dV][NMeF]L[NMeL]T[NBuGly][NMeL]S(Propyl(2R-OH))[NMePhe(3-Cl)][NMeV]D-Piperidide; lactam N-11) | 0.36 |
